Results as given in a melting point compilation (Tetko et al.; mined from patent text by program, amines drawn as free bases though some values may be those of a salt).

First: CCn1c2ccccc2c2cc(NC(=O)c3ccccc3C(F)(F)F)ccc21
Second: c1ccc(Cn2c(-c3ccc4c(c3)OCO4)nc3ccccc32)cc1
The melting point of the first is higher: 206 to 207 °C for the first, 143 to 145 °C for the second.

First: CS(=O)(=O)c1ccc(Nc2nccc(N3CCCc4c(O)cccc43)n2)cc1
Second: O=C(Nc1ccc2ccc(N3CCCC3)nc2n1)c1ccccc1
The melting point of the first is higher: 242 to 245 °C for the first, 130 °C for the second.

First: Oc1cccc(OCCCC(O)(O)C(F)(F)F)c1
Second: CCCCC(O)c1cccc(O)c1 (stereo not given)
The melting point of the first is lower: 76 to 77 °C for the first, 120 to 122 °C for the second.

First: CCOC(=O)CC(=O)N(C)c1ccc(Cl)cc1N
Second: CCOC(=O)c1ccc(N(C=O)Cc2ccc(Cl)cc2)cc1
The melting point of the first is higher: 112 to 114 °C for the first, 72 to 73 °C for the second.

First: Oc1c(Br)cc(-c2c3ccccc3c(I)c3sc4ccccc4c23)cc1Br
Second: O=C1c2c(cc(O)c(Cl)c2Cl)CC1(c1ccccc1)c1ccccc1
The melting point of the first is higher: 221 to 222 °C for the first, 207 to 213 °C for the second.

First: COCC(C)Nc1nccc(Oc2ccc(NC(=O)c3cc(F)cc(N4CCCCC4)c3)c3ccccc23)n1 (stereo not given)
Second: CC(=O)N1CCN(CCCOc2ccc(NC(=O)c3cc(F)cc(N4CCCCC4)c3)c3ccccc23)CC1
The melting point of the first is lower: 94 to 95 °C for the first, 210 to 211 °C for the second.

Compared with `OCC1OC(n2cnc3c(SCc4ccccc4)cc(Cl)nc32)C(O)C1O` (stereo not given), `O[C@@H]1CN(Cc2ccccc2)C[C@H]1Oc1ccc(Cl)cc1` (relative stereo) is lower in melting point: 154 to 156 °C for the first, 101 to 104 °C for the second.

Compared with `CC(=Cc1ccc(Oc2ccc(C)nc2)cc1)C(=O)O`, `CN(C)C(=O)Nc1ccc(OCc2nc(Cl)ccc2Cl)cc1` is lower in melting point: 211 to 214 °C for the first, 162 °C for the second.

First: COC(=O)CCSCCNC(=O)/C=C/C=C/c1ccccc1
Second: CC(C)COC(=O)[C@H](CC(=O)OCc1ccccc1)NC(=O)CCCCNC(=O)OC(C)(C)C
The melting point of the first is lower: 58 to 60 °C for the first, 64 to 66 °C for the second.

First: Fc1c(Cl)cc(Br)c2ccccc12
Second: Cn1c(-c2ccc(Br)cc2)cc2ccccc21
The melting point of the first is lower: 48 to 51 °C for the first, 114 to 115 °C for the second.

Compared with `Cc1cc(-c2nc3sc4ccccc4n3c2CC(=O)O)c(C)s1`, `Cc1cc2c(s1)Nc1ccccc1N=C2N1CCN[C@@H](CCc2ccccc2)C1` is lower in melting point: 249 to 250 °C for the first, 75 to 84 °C for the second.

First: CCC(Oc1ccc2nc(NC(=O)NCCN3CCOCC3)sc2c1)c1c(Cl)cccc1Cl (stereo not given)
Second: CCCCNC(=O)c1ccc2c(=O)nc(-c3ccccn3)sc2c1
The melting point of the first is higher: 200 °C for the first, 194 °C for the second.

First: CSc1ccc2oc3cc(F)ccc3c(=O)c2c1
Second: CC(O)(C(=O)O)c1ccc2c(c1)[nH]c1ccc(Cl)cc12 (stereo not given)
The melting point of the first is lower: 113 to 116 °C for the first, 218 to 220 °C for the second.

First: Cc1ccc(NC(=O)NCc2ccc3c(c2)CN(C2CCC(=O)NC2=O)C3=O)cc1O (stereo not given)
Second: Cc1ccc(OCC(=O)c2ccc3c(c2)C(C)(C)CCC3(C)C)cc1O
The melting point of the first is higher: 273 to 275 °C for the first, 144 to 145 °C for the second.

First: CC(C)c1nc(C(C)(C)C)cc(-c2ccc(F)cc2)c1CO
Second: N#Cc1ccc(-c2csc(NCCO)n2)cc1
The melting point of the first is higher: 112 to 113 °C for the first, 80 to 82 °C for the second.

First: CN1CCc2cccc3c4c(n(c23)CC1)CCSC4
Second: CCn1c(NC=O)nc(N2CCc3ccccc3CC2)c(C#N)c1=O
The melting point of the first is lower: 123 to 125 °C for the first, greater than 200 °C for the second.

First: COCc1ccc(Cc2cccc(-c3c(O)c4ccc(Cl)cc4[nH]c3=O)c2)cc1
Second: COc1ccc(Cn2c(=O)nc(C3CC3)c3cc(-c4cccc(Cl)c4)ccc32)cc1
The melting point of the first is higher: 276 to 278 °C for the first, 173 to 174 °C for the second.

First: C=C(C)C(=O)NCC(OC)OC
Second: CNC(=O)CCC(C)=S
The melting point of the first is lower: 30 to 32 °C for the first, 67 to 70 °C for the second.

Compared with `Cc1c(Nc2ncc(Br)cc2C(=O)O)cccc1C(F)(F)F`, `COC(=O)Cc1ccc(C(F)(F)F)cc1NC(C)=O` is lower in melting point: 222 to 224 °C for the first, 92 to 94 °C for the second.

Compared with `COC1CNCc2cc3ccccc3n21` (stereo not given), `Cc1ccccc1NC(=O)Nn1c(=O)c(=O)[nH]c2ccccc21` is higher in melting point: 120 to 122 °C for the first, greater than 300 °C for the second.

First: Cc1ccc2c3c(ccc2n1)OCC(CN1C2CCC1CC(O)(c1ccccc1)C2)O3 (stereo not given)
Second: CC12CCC3c4ccc(C(=O)O)cc4CCC3C1CCC2C(=O)c1cccc2ccccc12 (stereo not given)
The melting point of the first is lower: 162 to 165 °C for the first, 228 °C for the second.

First: CCOC(=O)C(C#N)C(=O)c1nn(-c2ccccc2)c2c1CSc1ccccc1-2 (stereo not given)
Second: CCc1nc2c(N)nc3ccccc3c2n1CCCC#Cc1ccccc1
The melting point of the first is lower: 176 to 178 °C for the first, 199 to 202 °C for the second.

First: CN(C)C(=O)Nc1coc2ccccc2c1=S
Second: Cc1cccc(C(=O)c2ccc(O)cc2)c1C
The melting point of the first is lower: 108 °C for the first, 155 to 158 °C for the second.

First: C[C@@H](O)CNC(=O)N1CC(c2ccc(F)cc2)C1
Second: CN(C)CCNC(=O)N1CCN(c2ccc(C(N)=O)cc2)CC1
The melting point of the first is lower: 104 to 105 °C for the first, 193 to 195 °C for the second.

First: NC(=S)C=Cc1ccc(C(F)(F)F)cc1
Second: C[C@]1(COC(=O)N2CCN(N=Cc3ccc(C(F)(F)F)cc3)CC2)Cn2cc([N+](=O)[O-])nc2O1
The melting point of the first is lower: 167 to 170 °C for the first, 176 to 178 °C for the second.

Compared with `CC(=O)OCC1OC(c2ccc(Cl)c(Cc3ccc(-c4ccc(F)nc4)s3)c2)C(OC(C)=O)C(OC(C)=O)C1OC(C)=O` (stereo not given), `CCCOC(=O)N(C)SN(C(=O)NC(=O)c1c(F)cccc1F)c1ccc(Oc2ccc(C(F)(F)F)cc2Cl)cc1F` is lower in melting point: 161 to 162 °C for the first, 98 to 99 °C for the second.

First: NS(=O)(=O)c1ccc(-c2noc(-c3cnn4c(C(F)(F)F)cc(-c5ccc(C(F)(F)F)c(OCC(F)(F)F)c5)nc34)n2)s1
Second: COCCNC(=O)c1cc(F)cc(-c2cccc3c(C)c(Cc4cccc(C(F)(F)F)c4)sc23)c1
The melting point of the first is higher: 255 °C for the first, 124 to 126 °C for the second.

First: CCC(=O)N(C(=O)CC)c1nnc2c3c(c(N4CCCCC4)nn12)CCCC3
Second: CC(C)NC(=O)C1=C(C(=O)Nc2cc(OC3CCCC3)c(Cl)cc2F)CCCC1
The melting point of the first is lower: 128 to 129 °C for the first, 169 to 171 °C for the second.

Compared with `CCCO/N=C(\C(=O)OC)c1csc(N)n1`, `CCNC(=O)[C@@H]1C[C@H](SCc2ccc(OC)cc2)CN1` is lower in melting point: 115 to 116 °C for the first, 67 to 68 °C for the second.

Compared with `O=C(NC1CCC(CCN2CCC(c3cccc4c3CCO4)CC2)CC1)C1CCOC1` (racemic), `O=c1[nH]c2ccc(N3CCOCC3)cc2c(=O)o1` is higher in melting point: 211 °C for the first, 235 °C for the second.

First: COc1ccc(COc2cncc3c2C(=O)c2c(NCCN(C)C)ccc(Cl)c2C3=O)cc1
Second: Cc1oc(-c2ccccc2)nc1COc1ccc(COc2cccnc2CO)cc1
The melting point of the first is higher: 127 to 128 °C for the first, 118 to 119 °C for the second.

First: Nc1c(F)cc(I)cc1Cl
Second: NCC1CCc2[nH]c3cc(Cl)c(Cl)cc3c2C1 (stereo not given)
The melting point of the first is lower: 85 to 87 °C for the first, 156 to 158 °C for the second.

First: Cc1nc(-c2ccc(O)c(C)c2O)no1
Second: Cc1cnc(-c2ccc(Cl)s2)nc1Cl
The melting point of the first is higher: 224 to 225 °C for the first, 137 °C for the second.

First: CCCc1nc2c(N)nc3ccc(-c4ccc(F)cc4CN)cc3c2s1
Second: Cc1cc(F)ccc1-c1nc(NCCNC(=O)Nc2ccccc2)nc2c1ccc(=O)n2-c1c(F)cccc1F
The melting point of the first is higher: 198 to 201 °C for the first, 142 to 148 °C for the second.

First: CC12CCC(=O)NC1CCc1cc(-c3cccc([N+](=O)[O-])c3)ccc12 (single isomer, unassigned; (+))
Second: Cc1cc(OCCc2ccccc2)ccc1[N+](=O)[O-]
The melting point of the first is higher: 223 to 225 °C for the first, 70 to 72 °C for the second.

First: CC(C)(C)c1cc(CC=Cc2ccccc2)c(O)c(C(C)(C)C)c1
Second: Cc1cc2c(c(C(C)(C)C)c1)OCC(/C=C/C=C/C=C/C(=O)O)=C2
The melting point of the first is lower: 89 °C for the first, 256 to 258 °C for the second.

First: O=C(N[C@H](Cc1cccc(OC(F)(F)C(F)F)c1)[C@@H](O)c1ccc(CO)cc1)c1cccc2c1C=CCCC2 (racemic)
Second: Cc1ccc(-c2ccc(C(=O)Nc3ccc4cc(CN5CCCC5)cnc4c3F)c(F)c2)cc1
The melting point of the first is lower: 151 to 152 °C for the first, 173 °C for the second.

`COc1c(C)c(C)cc(C)c1C(O)(c1ccc(C(C)C)cc1)C1CCN(Cc2ccccc2)CC1` (stereo not given) and `CCOC(=O)c1cc(NCc2c(C)cccc2C)c2nc(C)n(COCc3ccccc3)c2c1` cannot be ordered by melting point: 154 to 156 °C for the first, 155 to 156 °C for the second.

First: CCCCCCCC[C@H]1C[C@H]1CCCCCCCC(=O)NC(Cc1ccccc1)Cc1ccccc1 (relative stereo)
Second: CCCCCCCCCCCCCCOc1ccccc1C(=O)OC
The melting point of the first is higher: 40 to 45 °C for the first, 39 to 40 °C for the second.

Compared with `O=C(O)CC(C(=O)O)C(CSc1nc2ccccc2s1)C(=O)O` (stereo not given), `COC(=O)C(C(=O)OC)C(C)(N)C(Cc1ccccc1[N+](=O)[O-])c1ccccc1` (stereo not given) is lower in melting point: 188 to 190 °C for the first, 114 °C for the second.

First: CCOC(=O)c1ncn2c1c(=O)n(CC)c1ncccc12
Second: CCOc1c(C(=O)OCC(C)(C)C(O)C(C)(C)C)oc2ccc(OC)cc12 (stereo not given)
The melting point of the first is higher: 216 to 217 °C for the first, 100 to 101 °C for the second.

First: CCCCCNC(=O)C(C)Cc1ccc2c(c1)c(Cc1ccc(C(=O)OC)cc1OC)cn2C (stereo not given)
Second: COCCOCCn1cc(C(=O)NCc2ccc(Cl)cc2)c(=O)c2cc(CN(C)CC#N)ccc21
The melting point of the first is higher: 128 to 130 °C for the first, 118 to 120 °C for the second.

First: Cc1c(F)c(N2CCCC(n3ccnn3)C2)c(F)c2c1c(=O)c(C(=O)O)cn2C1CC1 (stereo not given)
Second: Cn1cc(C(=O)O)c(=O)c2cc3cc(F)c(N4CCNC(c5ccccc5)C4)c(F)c3nc21 (racemic)
The melting point of the first is lower: 227 to 228 °C for the first, 298 °C for the second.

`O=C(Cc1c[nH]c2ccccc12)NC1N=C(c2ccccc2)c2ccccc2NC1=O` (racemic) and `O=C(c1ccc(OCC2CC2)c2oc3ccccc3c12)[NH+]([O-])c1c(Cl)cncc1Cl` (stereo not given) cannot be ordered by melting point: 264 to 265 °C for the first, 263 to 265 °C for the second.

First: Clc1ccc(C2(Cn3cncn3)OCCO2)s1
Second: CCOC1Oc2ccc3cc(C#N)c(Cn4cncn4)cc3c2C1(C)C (stereo not given)
The melting point of the first is lower: 117 °C for the first, 128 to 129 °C for the second.

Compared with `CC(C)COC(=O)Nc1ccc(Br)cc1`, `COc1ccc2c(OC)c(C(C)C)cc(Br)c2c1` is higher in melting point: 95 to 96 °C for the first, 108 to 110 °C for the second.

First: CCCc1c(OCCCC(=O)NCCc2cccnc2)ccc(C(C)=O)c1O
Second: O=C(C=Cc1ccncc1)c1ccco1
The melting point of the first is lower: 94 to 96 °C for the first, 122 to 124 °C for the second.

First: N#Cc1ccc(Cc2c[nH]nn2)cc1
Second: CN(C)c1ccc(/C=C/c2ccc(F)cc2)cc1
The melting point of the first is lower: 83 °C for the first, 197 to 198 °C for the second.

First: Oc1ccc2c(c1)C=C(n1ccnc1)CC2
Second: NC(=O)NN=Cc1ccc(OC2C3CC4CC(C3)CC2C4)cc1 (stereo not given)
The melting point of the first is lower: 218 to 220 °C for the first, 226 to 228 °C for the second.

First: COC(=O)C1CCSC(C)(C)C(=O)N1 (stereo not given)
Second: COc1c(F)c(F)c(C(=O)c2c(F)c(F)c(F)c(F)c2F)c(OC)c1F
The melting point of the first is higher: 172 to 174 °C for the first, 49 to 50 °C for the second.
